# Assay results from US20240269139A1, “COMPOUNDS FOR TARGETED PROTEIN DEGRADATION OF KINASES” (DANA-FARBER CANCER INSTITUTE, INC., priority 2020, published 2024).
# Where two headings read alike, the source gives them in different places.
# Columns and labels:
# Type in all cases: cell-based
# [1] = biological target: protein kinases (human kinome) (Homo sapiens, UniProt Q05397); details: PTK2 Q05397; experiment wp146
# [2] = biological target: T1, protein kinases (human kinome) (Homo sapiens, UniProt O14965)
# T1 sequence (O14965 1-403): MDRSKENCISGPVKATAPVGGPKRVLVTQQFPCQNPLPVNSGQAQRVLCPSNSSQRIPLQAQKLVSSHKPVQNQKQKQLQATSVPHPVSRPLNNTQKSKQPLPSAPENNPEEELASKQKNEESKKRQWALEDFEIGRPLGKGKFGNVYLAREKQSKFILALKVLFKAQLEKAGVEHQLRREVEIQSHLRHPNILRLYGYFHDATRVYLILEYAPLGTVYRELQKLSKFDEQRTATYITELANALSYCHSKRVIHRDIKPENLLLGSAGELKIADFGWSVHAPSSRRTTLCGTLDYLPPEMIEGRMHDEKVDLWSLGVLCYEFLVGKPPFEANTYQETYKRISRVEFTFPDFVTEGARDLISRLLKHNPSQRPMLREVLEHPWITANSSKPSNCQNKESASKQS
# [3] = biological target: protein kinases (human kinome) (Homo sapiens, UniProt Q9BYT3); details: STK33 (Q9BYT3-1), experiment wp146
# [4] = biological target: protein kinases (human kinome) (Homo sapiens, UniProt P51812); details: RPS6KA3 (P51812), experiment wp146
# [5] = biological target: protein kinases (human kinome) (Homo sapiens, UniProt P24941)
# [6] = tested on: protein kinases (human kinome)
# [7] = biological target: protein kinases (human kinome) (Homo sapiens, UniProt P45984); details: MAPK9 P45984-1; experiment wp146
# [8] = biological target: protein kinases (human kinome) (Homo sapiens, UniProt P06493); details: CDK1 P06493; experiment wp146
# protein kinases (human kinome) (Homo sapiens, UniProt P06493), sequence (P06493 whole entry): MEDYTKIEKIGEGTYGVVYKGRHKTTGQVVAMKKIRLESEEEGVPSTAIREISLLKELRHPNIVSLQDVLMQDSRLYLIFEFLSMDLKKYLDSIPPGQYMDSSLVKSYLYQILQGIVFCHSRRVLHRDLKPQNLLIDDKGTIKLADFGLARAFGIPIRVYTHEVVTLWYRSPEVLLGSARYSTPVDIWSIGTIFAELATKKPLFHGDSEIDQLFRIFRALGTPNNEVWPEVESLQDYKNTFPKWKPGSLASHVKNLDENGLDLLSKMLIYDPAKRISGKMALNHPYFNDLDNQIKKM
# [9] = biological target: protein kinases (human kinome) (Homo sapiens, UniProt Q00535)
# protein kinases (human kinome) (Homo sapiens, UniProt Q00535), sequence (Q00535 whole entry): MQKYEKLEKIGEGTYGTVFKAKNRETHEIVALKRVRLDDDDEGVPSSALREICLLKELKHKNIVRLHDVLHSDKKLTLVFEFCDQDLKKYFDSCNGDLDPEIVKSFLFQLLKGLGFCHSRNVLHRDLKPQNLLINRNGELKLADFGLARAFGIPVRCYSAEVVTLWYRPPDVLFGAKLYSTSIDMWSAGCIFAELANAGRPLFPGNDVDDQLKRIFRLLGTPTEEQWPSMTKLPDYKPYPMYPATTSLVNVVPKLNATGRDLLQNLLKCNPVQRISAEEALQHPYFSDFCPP
# [10] = biological target: T2, protein kinases (human kinome) (Homo sapiens, UniProt P33981); details: experiment wp146
# T2 sequence (P33981 1-857): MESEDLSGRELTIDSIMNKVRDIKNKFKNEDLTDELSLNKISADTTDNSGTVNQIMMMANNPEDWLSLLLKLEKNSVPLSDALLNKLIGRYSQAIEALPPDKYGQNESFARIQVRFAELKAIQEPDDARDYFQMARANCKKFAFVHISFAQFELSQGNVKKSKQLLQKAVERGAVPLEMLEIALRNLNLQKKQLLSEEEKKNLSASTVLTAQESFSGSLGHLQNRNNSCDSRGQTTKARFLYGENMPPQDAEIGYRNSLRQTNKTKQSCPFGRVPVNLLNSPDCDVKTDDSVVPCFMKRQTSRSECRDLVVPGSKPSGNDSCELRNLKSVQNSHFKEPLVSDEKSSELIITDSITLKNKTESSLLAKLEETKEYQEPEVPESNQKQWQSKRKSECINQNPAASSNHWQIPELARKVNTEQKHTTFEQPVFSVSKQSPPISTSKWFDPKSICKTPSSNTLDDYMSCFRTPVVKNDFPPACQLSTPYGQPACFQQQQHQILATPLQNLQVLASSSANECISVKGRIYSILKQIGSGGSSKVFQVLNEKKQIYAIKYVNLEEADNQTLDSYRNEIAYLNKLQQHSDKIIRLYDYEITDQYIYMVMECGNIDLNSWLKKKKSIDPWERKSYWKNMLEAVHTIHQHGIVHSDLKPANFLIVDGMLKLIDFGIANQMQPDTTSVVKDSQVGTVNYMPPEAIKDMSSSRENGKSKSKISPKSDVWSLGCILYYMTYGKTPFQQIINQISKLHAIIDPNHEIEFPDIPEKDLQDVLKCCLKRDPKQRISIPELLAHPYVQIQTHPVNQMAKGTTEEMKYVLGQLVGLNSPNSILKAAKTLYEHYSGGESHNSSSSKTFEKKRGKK
# [11] = biological target: protein kinases (human kinome) (Homo sapiens, UniProt P50613)
# [12] = biological target: protein kinases (human kinome) (Homo sapiens, UniProt Q14004); details: experiment wp016
# [13] = biological target: protein kinases (human kinome) (Homo sapiens, UniProt P51451)
# [14] = biological target: T3, protein kinases (human kinome) (Homo sapiens, UniProt Q08881); details: experiment wp016
# T3 sequence (Q08881 1-620): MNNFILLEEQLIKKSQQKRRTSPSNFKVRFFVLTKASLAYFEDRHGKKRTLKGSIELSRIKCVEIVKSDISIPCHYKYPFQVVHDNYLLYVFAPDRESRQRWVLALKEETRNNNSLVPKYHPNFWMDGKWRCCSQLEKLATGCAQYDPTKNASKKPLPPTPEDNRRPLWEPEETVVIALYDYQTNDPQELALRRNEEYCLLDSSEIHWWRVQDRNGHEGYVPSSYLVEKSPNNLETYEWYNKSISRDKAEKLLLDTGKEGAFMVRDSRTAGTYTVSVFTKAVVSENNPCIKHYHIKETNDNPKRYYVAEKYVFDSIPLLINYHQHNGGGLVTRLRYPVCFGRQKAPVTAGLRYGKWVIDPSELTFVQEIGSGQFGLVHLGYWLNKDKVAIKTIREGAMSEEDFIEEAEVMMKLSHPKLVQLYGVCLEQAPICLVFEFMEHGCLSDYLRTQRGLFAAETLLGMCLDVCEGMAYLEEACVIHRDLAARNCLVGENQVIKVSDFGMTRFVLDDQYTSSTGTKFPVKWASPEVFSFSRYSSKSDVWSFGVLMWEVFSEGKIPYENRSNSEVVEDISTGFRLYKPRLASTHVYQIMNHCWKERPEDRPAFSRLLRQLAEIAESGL
# [15] = biological target: protein kinases (human kinome) (Homo sapiens, UniProt Q00537); details: experiment wp016
# [16] = biological target: protein kinases (human kinome) (Homo sapiens, UniProt O94804); details: STK10 (O94804), experiment wp016
# [17] = biological target: protein kinases (human kinome) (Homo sapiens, UniProt P16591)
# [18] = biological target: protein kinases (human kinome) (Homo sapiens, UniProt P11802); details: experiment wp016
# protein kinases (human kinome) (Homo sapiens, UniProt P11802), sequence (P11802 whole entry): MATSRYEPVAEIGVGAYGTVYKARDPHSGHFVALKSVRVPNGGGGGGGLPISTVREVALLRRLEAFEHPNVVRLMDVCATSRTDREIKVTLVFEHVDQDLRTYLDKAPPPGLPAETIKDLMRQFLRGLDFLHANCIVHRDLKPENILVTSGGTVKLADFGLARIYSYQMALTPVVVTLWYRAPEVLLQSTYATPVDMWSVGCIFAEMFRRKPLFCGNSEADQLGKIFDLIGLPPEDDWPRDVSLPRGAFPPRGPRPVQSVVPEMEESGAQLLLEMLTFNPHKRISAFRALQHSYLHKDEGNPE
# [19] = biological target: protein kinases (human kinome) (Homo sapiens, UniProt P30291); details: experiment wp016
# protein kinases (human kinome) (Homo sapiens, UniProt P30291), sequence (P30291 whole entry): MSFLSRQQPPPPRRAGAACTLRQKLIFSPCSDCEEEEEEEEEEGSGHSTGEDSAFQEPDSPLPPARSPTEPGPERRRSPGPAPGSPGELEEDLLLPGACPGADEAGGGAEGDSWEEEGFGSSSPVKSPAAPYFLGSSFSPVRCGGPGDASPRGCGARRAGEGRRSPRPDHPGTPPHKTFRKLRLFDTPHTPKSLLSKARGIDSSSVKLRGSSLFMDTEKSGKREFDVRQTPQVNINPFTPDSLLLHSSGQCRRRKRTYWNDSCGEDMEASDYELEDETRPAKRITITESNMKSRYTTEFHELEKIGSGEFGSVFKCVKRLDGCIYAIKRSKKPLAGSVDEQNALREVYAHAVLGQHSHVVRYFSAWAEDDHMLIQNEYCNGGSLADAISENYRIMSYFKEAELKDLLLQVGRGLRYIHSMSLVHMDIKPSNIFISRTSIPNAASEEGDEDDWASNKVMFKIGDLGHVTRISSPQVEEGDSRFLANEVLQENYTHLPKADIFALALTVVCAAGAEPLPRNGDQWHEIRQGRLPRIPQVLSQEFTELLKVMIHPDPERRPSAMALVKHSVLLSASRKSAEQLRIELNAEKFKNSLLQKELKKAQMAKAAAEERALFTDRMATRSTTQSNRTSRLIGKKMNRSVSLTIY
# [20] = biological target: protein kinases (human kinome) (Homo sapiens, UniProt Q14289)
# protein kinases (human kinome) (Homo sapiens, UniProt Q14289), sequence (Q14289 whole entry): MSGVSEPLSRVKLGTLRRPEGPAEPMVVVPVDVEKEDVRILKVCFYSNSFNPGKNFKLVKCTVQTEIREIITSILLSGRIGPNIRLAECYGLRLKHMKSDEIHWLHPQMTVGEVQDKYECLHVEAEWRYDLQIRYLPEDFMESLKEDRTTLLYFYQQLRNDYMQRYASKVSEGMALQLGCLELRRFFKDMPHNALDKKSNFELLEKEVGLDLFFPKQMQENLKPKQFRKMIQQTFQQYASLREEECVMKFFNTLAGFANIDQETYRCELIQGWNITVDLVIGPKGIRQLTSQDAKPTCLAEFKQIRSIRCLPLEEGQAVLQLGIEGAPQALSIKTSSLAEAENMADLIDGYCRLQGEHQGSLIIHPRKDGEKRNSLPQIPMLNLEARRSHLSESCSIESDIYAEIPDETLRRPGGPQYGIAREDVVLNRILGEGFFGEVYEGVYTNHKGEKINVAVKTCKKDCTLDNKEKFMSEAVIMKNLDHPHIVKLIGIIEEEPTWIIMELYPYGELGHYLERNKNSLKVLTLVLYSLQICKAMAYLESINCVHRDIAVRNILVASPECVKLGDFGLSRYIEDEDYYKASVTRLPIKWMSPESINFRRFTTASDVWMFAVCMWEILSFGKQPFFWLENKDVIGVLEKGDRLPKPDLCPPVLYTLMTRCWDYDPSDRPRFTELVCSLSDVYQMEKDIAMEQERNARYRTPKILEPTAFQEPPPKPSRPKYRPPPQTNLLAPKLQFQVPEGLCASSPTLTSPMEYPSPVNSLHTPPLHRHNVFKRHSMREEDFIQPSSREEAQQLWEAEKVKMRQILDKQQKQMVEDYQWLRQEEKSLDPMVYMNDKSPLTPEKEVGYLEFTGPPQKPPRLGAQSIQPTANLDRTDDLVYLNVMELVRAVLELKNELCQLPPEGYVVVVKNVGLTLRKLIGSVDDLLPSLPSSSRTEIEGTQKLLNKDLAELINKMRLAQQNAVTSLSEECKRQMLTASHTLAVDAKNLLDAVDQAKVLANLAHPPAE
# [21] = biological target: protein kinases (human kinome) (Homo sapiens, UniProt Q9NSY1); details: BMP2K Q9NSY1; experiment wp016
# protein kinases (human kinome) (Homo sapiens, UniProt Q9NSY1), sequence (Q9NSY1 whole entry): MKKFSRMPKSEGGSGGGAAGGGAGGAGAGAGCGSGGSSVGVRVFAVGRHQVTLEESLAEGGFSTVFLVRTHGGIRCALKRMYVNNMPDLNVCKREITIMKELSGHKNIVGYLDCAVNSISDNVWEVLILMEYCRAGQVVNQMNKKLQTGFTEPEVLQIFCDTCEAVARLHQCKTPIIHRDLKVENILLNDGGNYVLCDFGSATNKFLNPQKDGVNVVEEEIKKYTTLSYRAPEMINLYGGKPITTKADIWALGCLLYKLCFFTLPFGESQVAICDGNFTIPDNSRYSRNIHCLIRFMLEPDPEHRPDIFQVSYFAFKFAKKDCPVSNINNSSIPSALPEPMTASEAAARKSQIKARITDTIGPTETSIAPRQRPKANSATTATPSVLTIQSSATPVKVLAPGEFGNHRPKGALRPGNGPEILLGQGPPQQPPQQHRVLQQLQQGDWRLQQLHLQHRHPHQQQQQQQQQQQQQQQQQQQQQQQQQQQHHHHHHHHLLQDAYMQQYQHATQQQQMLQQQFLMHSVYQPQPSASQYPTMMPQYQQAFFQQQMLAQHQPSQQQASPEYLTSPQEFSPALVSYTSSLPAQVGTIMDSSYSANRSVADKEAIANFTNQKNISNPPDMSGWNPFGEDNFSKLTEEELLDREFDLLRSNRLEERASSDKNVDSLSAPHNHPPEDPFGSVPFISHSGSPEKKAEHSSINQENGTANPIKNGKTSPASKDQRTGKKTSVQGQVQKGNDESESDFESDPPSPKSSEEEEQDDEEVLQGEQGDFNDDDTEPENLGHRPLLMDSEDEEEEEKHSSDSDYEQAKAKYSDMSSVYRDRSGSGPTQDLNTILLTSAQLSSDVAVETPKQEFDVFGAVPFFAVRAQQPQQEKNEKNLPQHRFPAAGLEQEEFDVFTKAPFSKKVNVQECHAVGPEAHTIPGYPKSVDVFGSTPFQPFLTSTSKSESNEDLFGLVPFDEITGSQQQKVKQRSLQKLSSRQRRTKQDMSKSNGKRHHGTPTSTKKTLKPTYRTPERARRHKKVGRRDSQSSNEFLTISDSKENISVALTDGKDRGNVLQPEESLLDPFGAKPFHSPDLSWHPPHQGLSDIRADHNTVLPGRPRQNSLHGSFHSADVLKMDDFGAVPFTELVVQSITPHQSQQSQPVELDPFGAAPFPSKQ
# [22] = biological target: protein kinases (human kinome) (Homo sapiens, UniProt P53671); details: experiment wp016
# [23] = biological target: protein kinases (human kinome) (Homo sapiens, UniProt Q9NYV4); details: experiment wp016
# [24] = biological target: protein kinases (human kinome) (Homo sapiens, UniProt Q00534)
# protein kinases (human kinome) (Homo sapiens, UniProt Q00534), sequence (Q00534 whole entry): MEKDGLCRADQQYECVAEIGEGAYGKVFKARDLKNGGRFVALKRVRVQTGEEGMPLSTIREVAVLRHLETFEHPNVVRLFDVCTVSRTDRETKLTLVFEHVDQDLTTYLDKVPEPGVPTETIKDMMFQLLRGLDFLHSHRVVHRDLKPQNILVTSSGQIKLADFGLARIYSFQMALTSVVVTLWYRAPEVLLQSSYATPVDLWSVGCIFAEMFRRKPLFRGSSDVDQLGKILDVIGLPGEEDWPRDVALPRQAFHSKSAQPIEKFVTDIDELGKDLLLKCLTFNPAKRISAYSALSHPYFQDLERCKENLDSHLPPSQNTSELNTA
# [25] = biological target: protein kinases (human kinome) (Homo sapiens, UniProt Q2M2I8); details: experiment wp016
# protein kinases (human kinome) (Homo sapiens, UniProt Q2M2I8), sequence (Q2M2I8 whole entry): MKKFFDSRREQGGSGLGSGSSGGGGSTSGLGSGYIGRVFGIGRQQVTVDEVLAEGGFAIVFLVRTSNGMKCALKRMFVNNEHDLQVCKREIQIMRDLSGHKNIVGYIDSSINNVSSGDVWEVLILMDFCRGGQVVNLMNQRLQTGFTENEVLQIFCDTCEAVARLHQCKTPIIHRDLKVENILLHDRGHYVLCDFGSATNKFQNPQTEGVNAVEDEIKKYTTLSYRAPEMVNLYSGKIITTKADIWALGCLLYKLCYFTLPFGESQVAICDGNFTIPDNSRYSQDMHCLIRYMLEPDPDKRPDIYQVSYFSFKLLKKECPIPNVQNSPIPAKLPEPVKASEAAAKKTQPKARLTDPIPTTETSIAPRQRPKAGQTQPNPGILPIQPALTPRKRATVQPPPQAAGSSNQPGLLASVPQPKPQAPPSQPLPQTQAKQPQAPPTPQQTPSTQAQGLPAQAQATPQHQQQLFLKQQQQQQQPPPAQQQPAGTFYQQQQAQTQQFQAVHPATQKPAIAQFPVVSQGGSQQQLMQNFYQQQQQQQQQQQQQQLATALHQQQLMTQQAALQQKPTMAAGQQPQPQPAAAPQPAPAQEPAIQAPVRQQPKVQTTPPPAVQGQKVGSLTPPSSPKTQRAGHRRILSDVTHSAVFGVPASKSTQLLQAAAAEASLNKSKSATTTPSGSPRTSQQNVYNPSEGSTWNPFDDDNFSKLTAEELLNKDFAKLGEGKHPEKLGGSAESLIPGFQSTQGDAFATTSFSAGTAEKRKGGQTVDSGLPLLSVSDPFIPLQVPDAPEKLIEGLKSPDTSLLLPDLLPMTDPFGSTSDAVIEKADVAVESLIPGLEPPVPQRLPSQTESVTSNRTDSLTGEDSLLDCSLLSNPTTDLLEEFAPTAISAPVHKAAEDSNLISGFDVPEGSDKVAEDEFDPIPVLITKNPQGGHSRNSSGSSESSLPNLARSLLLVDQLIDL
# [26] = experiment wp146, direction of change down
# [27] = AURKB Q96GD4-5, experiment wp146
# [28] = experiment wp016, direction of change down
structure (smiles),measurement,setting,value
Cc1cc(S(=O)(=O)NCCOCCOCCOCCOCCNc2cccc3c2C(=O)N(C2CCC(=O)NC2=O)C3=O)ccc1Nc1ncc(Br)c(Nc2cccc(F)c2C(N)=O)n1 (centres unmarked) [TMX.02.172],logFC,[1],−0.7381
same,logFC PTK2,[1],−0.7381
same,logFC AURKA (O14965),[2]; experiment wp146,−2.402
same,logFC,[3],−1.295
same,logFC,[3]; direction down,−1.295
same,logFC,[4],−0.8349
same,logFC,[4]; direction down,−0.8349
same,logFC CDK2 (P24941-1),[5]; experiment wp146,−2.199
same,logFC CDK2 (P24941-1),[5]; [26],−2.199
same,logFC,[6]; [27],−0.4856
same,logFC AURKB,[6]; [27],−0.4856
same,logFC MAPK8 (P45983-4),"[6]; Experiment wp146, direction down",−0.5524
same,logFC MAPK8,"[6]; MAPK8 P45983-4, experiment wp146",−0.5524
same,logFC RPS6KA1,"[6]; RPS6KA1 (Q15418-2), experiment wp146",−1.351
same,logFC RPS6KA1 (Q15418-2),[6]; experiment wp146,−1.351
same,logFC,[7],−1.091
same,logFC MAPK9,[7],−1.091
same,logFC,[8],−1.302
same,logFC CDK1,[8],−1.302
same,logFC CDK5 (Q00535),[9]; experiment wp146,−2.878
same,logFC CDK5 (Q00535),[9]; [26],−2.878
same,logFC TTK,[10]; Accession P33981,−0.7542
same,logFC TTK (P33981),[10],−0.7542
CC(C)S(=O)(=O)c1ccccc1Nc1nc(Nc2ccc(N3CCN(CCOCCOCCNC(=O)CNc4ccc5c(c4)C(=O)N(C4CCC(=O)NC4=O)C5=O)CC3)cc2)ncc1Cl (centres unmarked) [LT2.49],logFC,"[11]; CDK7 (P50613) protein abundance, degrader vs DMSO, down",−1.014
same,logFC CDK7,"[11]; CDK7 P50613, experiment wp016",−1.014
same,logFC CDK13,[12]; Accession Q14004-1,−0.3839
same,logFC CDK13 (Q14004-1),[12],−0.3839
same,logFC of BLK,"[13]; BLK P51451, experiment wp016",−1.613
same,logFC of BLK (P51451),"[13]; Experiment wp016, down",−1.613
same,logFC AURKA (O14965),[2]; experiment wp016,−1.853
same,logFC ITK (Q08881),[14],−2.212
same,logFC ITK (Q08881),[14]; direction of change down,−2.212
same,logFC of CDK17,[15]; Accession Q00537,−0.7544
same,logFC CDK17 (Q00537),[15]; direction of change down,−0.7544
same,logFC,[16],−0.3336
same,logFC,[16]; direction down,−0.3336
same,logFC CDK2 (P24941-1),[5]; experiment wp016,−0.5177
same,logFC CDK2 (P24941-1),[5]; [28],−0.5177
same,logFC of FER (P16591-1),"[17]; Experiment wp016, down",−2.467
same,logFC of FER,"[17]; FER P16591-1, experiment wp016",−2.467
same,logFC,"[6]; CDK9 (P50750-2) protein abundance, degrader vs DMSO, down",−0.6469
same,logFC PRKAA1 (Q13131-2),"[6]; Experiment wp016, direction down",−0.3739
same,logFC LCK,"[6]; LCK, accession P06239-3, experiment wp016, direction of change down",−0.6186
same,logFC CDK9 (P50750-2),[6]; experiment wp016,−0.6469
same,logFC PRKAA1 (Q13131-2),[6]; experiment wp016,−0.3739
same,logFC LCK (P06239-3),[6]; [28],−0.6186
same,logFC CDK4 (P11802),[18],−0.8985
same,logFC WEE1 (P30291-1),[19],−1.314
same,logFC,"[20]; PTK2B (Q14289-1) protein abundance, degrader vs DMSO, down",−3.365
same,logFC PTK2B,"[20]; PTK2B, accession Q14289-1, experiment wp016, direction of change down",−3.365
same,logFC,[21],−0.5079
same,logFC BMP2K,[21],−0.5079
same,logFC of CDK5,"[9]; Accession Q00535, experiment wp016",−0.8608
same,logFC CDK5 (Q00535),[9]; [28],−0.8608
same,logFC LIMK2,"[22]; LIMK2 (P53671), down",−0.9573
same,logFC of LIMK2,[22]; LIMK2 P53671,−0.9573
same,logFC CDK12,[23]; Accession Q9NYV4-1,−0.868
same,logFC CDK12,[23]; CDK12 (Q9NYV4-1),−0.868
same,logFC CDK6,"[24]; CDK6 (Q00534), direction down, experiment wp016",−0.6531
same,logFC of CDK6 (Q00534),"[24]; Experiment wp016, down",−0.6531
same,logFC AAK1,"[25]; AAK1 (Q2M218-1), down",−1.778
same,logFC AAK1,"[25]; AAK1, accession Q2M218-1, direction of change down",−1.778
